# pIC50: −log10 of the molar value. Where a name gives a salt, the structure may show the parent alone.
# Tests used:
# [1] = system: human hepatoma Huh-7 cells; experiment: Transwell migration assay; format: cell-based; details: C1 2 uM or 5 uM; C2 2 uM or uM
# Protocol: (§1) Transwell migration assays of human glioma U87 cells, human pancreatic cancer Panc-1 cells, mouse lung cancer LL2 cells, or human hepatoma Huh-7 cells treated with the GLK inhibitor C1 (verteporfin) (a; 2 uM or 5 uM) or C2 (alexidine dihydrochloride) (b; 2 uM or uM). C1 denotes verteporfin; C2 denotes alexidine dihydrochloride.
# (§2) For primary cell migration assays, 2×10^5 cells in […] of IMDM with 10% FBS were seeded into the upper chamber of transwells (8 μm pore size, Corning), and the lower chamber was loaded with […] of IMDM with 20% FBS. For cancer cell migration assays, 5×10^4 cells in 200 μl of RPMI 1640 with 10% FBS were seeded into the upper chamber of transwells (8 μm pore size, Corning), and the lower chamber was loaded with […] of RPMI 1640 with 10% FBS. After incubation at 37° C. for 24 h, cells migrating to the lower chamber were imaged and counted by bright-field microscopy following fixation with absolute methanol and staining with 1% crystal violet solution.
# [2] = system: human pancreatic cancer Panc-1 cells; experiment: Transwell migration assay; format: cell-based; details: C1 2 uM or 5 uM; C2 2 uM or uM
# Protocol: as §1, §2
# [3] = system: mouse lung cancer LL2 cells; experiment: Transwell migration assay; format: cell-based; details: C1 2 uM or 5 uM; C2 2 uM or uM
# Protocol: as §1, §2
# human glioma U87 cells = experiment: Transwell migration assay; format: cell-based; details: C1 2 uM or 5 uM; C2 2 uM or uM
# Protocol: as §1, §2
# KHS (MAP4K5) = target: T1, KHS (MAP4K5) (Homo sapiens, UniProt Q9Y4K4); experiment: In vitro kinase assay, recombinant kinase domain, MBP as substrate; format: biochemical
# T1 construct: Recombinant proteins of kinase domains of various MAP4Ks were used
# T1 sequence (Q9Y4K4 20-277 limits assumed, species assumed): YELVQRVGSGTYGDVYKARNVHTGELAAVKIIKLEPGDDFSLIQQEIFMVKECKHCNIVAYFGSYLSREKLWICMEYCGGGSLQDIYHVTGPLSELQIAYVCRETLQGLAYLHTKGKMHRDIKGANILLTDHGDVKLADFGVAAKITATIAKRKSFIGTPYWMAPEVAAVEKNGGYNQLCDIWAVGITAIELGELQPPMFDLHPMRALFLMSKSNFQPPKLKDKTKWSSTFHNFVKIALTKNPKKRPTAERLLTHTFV
# Protocol: (§3) GLK kinase activity was determined by measuring the rate of ADP production in the in vitro kinase reaction using ADP-GLO™ Kinase Assay kit. For the kinase reaction, recombinant proteins of the GLK kinase-domain (1 μg) were incubated with recombinant proteins of kinase-dead PKCθ (K409W; 0.15 μg) plus ATP (0.1 mM) or myelin basic protein (MBP) plus ATP (0.1 mM) in kinase buffer (40 mM Tris-HCl, pH7.5.20 mM MgCl2, 0.1 mg/ml BSA, 10 mM DTT and 0.1 mM Na3VO4) for 30 min at room temperature. We studied whether GLK inhibitors also suppress cancer cell migration. […] Moreover, both C1 (verteporfin) and C2 (alexidine dihydrochloride) treatments suppressed tumor growth in the xenograft mouse model using TC-1 lung cancer cells (FIG. 15). To study whether GLK deficiency results in a reduction of lung cancer metastasis, we used a metastatic Lewis lung carcinoma (LLC) mouse model by tail vein injection of luciferase-expressing LLC (LLC/luc) cells. We identified two GLK inhibitors (verteporfin and alexidine dihydrochloride)) using cell-based assays and in vitro kinase assays. […] The dimerization of Flag-tagged GLK protein and GFP-GLK fusion protein was indeed blocked by the C1 (verteporfin) treatment (FIG. 16C). We treated the LLC/luc cells-containing mice with the GLK inhibitor C1 (verteporfin) or C2 (alexidine dihydrochloride) by intravenous injection every 3 days for 30 days (FIG. 16D). The luciferase activity of LLC/luc cells in the mice was detected by In Vivo Imaging System. The excised lungs were weighed and subjected to H&E staining. The luciferase activity of LLC/luc cells in the lung of injected mice was reduced by the treatment of C1 (verteporfin) or C2 (alexidine dihydrochloride) (FIGS. 16E-F). […] Moreover, the interaction between GLK and IQGAP1 in the lung tissues were inhibited by the treatment of C1 (verteporfin) or C2 (alexidine dihydrochloride) (FIG. 16H, upper panel), and IQGAP1 phosphorylation was in the lung tissues were inhibited (FIG. 16H, lower panel). […] Inhibition of kinase activity of GLK (MAP4K3) or other MAP4Ks was determined by in vitro kinase assays using myelin basic protein (MBP) as a substrate. Recombinant proteins of kinase domains of various MAP4Ks were used. C1, verteporfin: C2, alexidine dihydrochloride.
# HPK1 (MAP4K1) = target: T2, HPK1 (MAP4K1) (Homo sapiens, UniProt Q92918); experiment: as above; format: biochemical
# T2 construct: Recombinant proteins of kinase domains of various MAP4Ks were used
# T2 sequence (Q92918 17-274 limits assumed, species assumed): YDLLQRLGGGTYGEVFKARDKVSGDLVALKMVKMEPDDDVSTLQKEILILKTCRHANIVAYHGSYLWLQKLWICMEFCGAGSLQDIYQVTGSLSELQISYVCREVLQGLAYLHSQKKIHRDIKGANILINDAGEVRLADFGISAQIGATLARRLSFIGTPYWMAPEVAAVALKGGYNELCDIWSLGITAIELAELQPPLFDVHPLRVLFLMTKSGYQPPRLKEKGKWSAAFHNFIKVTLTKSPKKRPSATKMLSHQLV
# Protocol: as §3
# HGK (MAP4K4) = target: T3, HGK (MAP4K4) (Homo sapiens, UniProt O95819); experiment: as above; format: biochemical
# T3 construct: Recombinant proteins of kinase domains of various MAP4Ks were used
# T3 sequence (O95819 25-289 limits assumed, species assumed): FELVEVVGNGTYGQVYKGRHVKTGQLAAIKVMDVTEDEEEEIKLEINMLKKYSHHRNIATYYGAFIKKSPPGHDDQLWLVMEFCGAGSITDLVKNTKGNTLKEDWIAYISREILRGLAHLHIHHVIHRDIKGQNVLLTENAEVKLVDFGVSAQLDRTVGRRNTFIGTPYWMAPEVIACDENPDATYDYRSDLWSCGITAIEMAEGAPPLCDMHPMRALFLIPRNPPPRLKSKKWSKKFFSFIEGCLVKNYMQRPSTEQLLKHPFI
# Protocol: as §3
Compound,migration of hepatoma cells [1],migration of pancreatic cancer cells [2],migration of lung cancer cells [3],migration of glioma cells (human glioma U87 cells),pIC50 (KHS (MAP4K5)),pIC50 (HPK1 (MAP4K1)),pIC50 (HGK (MAP4K4))
"C=Cc1c(C)c2cc3nc(cc4[nH]c(cc5nc(cc1[nH]2)C(C)=C5CCC(=O)O)c(CCC(=O)OC)c4C)[C@@]1(C)C3=CC=C(C(=O)OC)[C@H]1C(=O)OC [C1, verteporfin]",inhibited,inhibited,inhibited,inhibited,7.36,8.10,8.31
"CCCCC(CC)CNC(=N)NC(=N)NCCCCCCNC(=N)NC(=N)NCC(CC)CCCC (centres unmarked) [C2, alexidine dihydrochloride]",inhibited,inhibited,inhibited,inhibited,7.74,8.21,7.66

# — US11360080B2, “AhR-ROR-γt complex as a biomarker and therapeutic target for autoimmune disease and IL-17A-associated disease” (NATIONAL HEALTH RESEARCH INSTITUTES, priority 2018, dated 2022)
